Test results: PubChem BioAssay (NCI)
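Each compound was tested at five concentrations against cells in 96-well plates for 48 hours. Here, GI50 denotes the concentration required for 50% inhibition of growth. TGI is the concentration that stops growth completely.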

Columns and labels:
Test in all cases: NCI anticancer screen, dose series, 48 h
[1] = test system: K-562 leukemia
[2] = test system: CAKI-1 renal
[3] = test system: UACC-257 melanoma
[4] = test system: RPMI-8226 leukemia
[5] = test system: NCI-H460 lung
[6] = test system: MOLT-4 leukemia
[7] = test system: TK-10 renal
[8] = test system: KM12 colon
[9] = test system: HOP-92 NSCLC

Structure (SMILES): COC(=O)/C(C#N)=C1\CCC(O)N1 (stereo not drawn)
- TGI [1]: > 100 µM
- TGI [2]: > 100 µM
- TGI [3]: > 100 µM
- TGI [4]: > 100 µM
- TGI [5]: > 100 µM
- TGI [6]: > 100 µM
- TGI [7]: > 100 µM
- TGI [8]: > 100 µM

Structure (SMILES): CN(C)C(=S)/N=c1\ss/c(=N\C(=S)N(C)C)n1-c1ccc(Cl)c(Cl)c1
- TGI [1]: > 100 µM
- TGI [2]: > 100 µM
- TGI [3]: > 100 µM
- TGI [4]: > 100 µM
- TGI [5]: > 100 µM
- TGI [6]: > 100 µM
- TGI [7]: > 100 µM
- TGI [8]: > 100 µM

Structure (SMILES): COC(=O)/C(C)=C/[N+](=O)[O-]
- TGI [1]: 13.2 µM
- TGI [2]: 8.14 µM
- TGI [3]: 29.3 µM
- TGI [4]: 7.36 µM
- TGI [5]: 54.8 µM
- TGI [6]: 39.4 µM
- TGI [7]: 31.1 µM
- TGI [9]: 22.8 µM
- TGI [8]: 32.9 µM

Structure (SMILES): CC1=NN(C(=O)CC(=O)N(C(=O)c2ccccc2Cl)c2ccc(C)cc2)C(=O)C1N=Nc1ccc([N+](=O)[O-])cc1 (stereo not drawn)
- TGI [1]: > 80.8 µM
- TGI [2]: > 100 µM
- TGI [3]: > 100 µM
- TGI [4]: > 70.3 µM
- TGI [5]: > 76.5 µM
- TGI [6]: > 100 µM
- TGI [7]: > 100 µM
- TGI [9]: > 78.5 µM
- TGI [8]: > 100 µM

Structure (SMILES): O=S1OC2(c3ccccc3-c3ccccc32)c2ccccc21 (stereo not drawn)
- TGI [1]: > 100 µM
- TGI [3]: > 100 µM
- TGI [4]: > 100 µM
- TGI [5]: > 100 µM
- TGI [6]: > 100 µM
- TGI [7]: > 100 µM
- TGI [8]: > 100 µM

Structure (SMILES): Nc1nc(CCl)nc(Nc2ccccc2)n1
- TGI [2]: 24.8 µM
- TGI [3]: 71.9 µM
- TGI [4]: 19.8 µM
- TGI [5]: 39.3 µM
- TGI [6]: 37.2 µM
- TGI [7]: 83.4 µM
- TGI [9]: 33.6 µM
- TGI [8]: 30.1 µM

Structure (SMILES): Cc1cc(NS(=O)(=O)c2ccc(Nc3c4ccccc4nc4c(C(=O)NCCN(C)C)cccc34)cc2)no1
- TGI [1]: > 100 µM
- TGI [5]: 26.6 µM
- TGI [7]: > 100 µM
- TGI [8]: > 100 µM

Structure (SMILES): CC(C)CCCC(C)[C@H]1CCC2[C@H]3C(CC[C@@]21C)[C@@]1(C)CCC=C[C@]12C[C@@H]2[C@@H]3O (stereo partly drawn)
- TGI [2]: > 100 µM
- TGI [3]: > 100 µM
- TGI [4]: > 100 µM
- TGI [5]: > 100 µM
- TGI [6]: > 100 µM
- TGI [7]: > 100 µM
- TGI [9]: > 100 µM
- TGI [8]: > 100 µM

Structure (SMILES): COc1ccc(-c2oc3cc(O)c(OC)c(O)c3c(=O)c2OC)cc1O
- GI50 [1]: 0.0436 µM
- TGI [1]: > 100 µM
- GI50 [2]: 2.38 µM
- TGI [2]: 28.3 µM
- GI50 [3]: > 100 µM
- TGI [3]: > 100 µM
- GI50 [4]: 0.417 µM
- TGI [4]: > 100 µM
- GI50 [5]: 0.138 µM
- TGI [5]: 4.34 µM
- GI50 [6]: 0.509 µM
- TGI [6]: > 100 µM
- GI50 [7]: 21.1 µM
- TGI [7]: > 100 µM
- GI50 [9]: 3.46 µM
- TGI [9]: > 100 µM
- GI50 [8]: 0.437 µM
- TGI [8]: 20.9 µM

Structure (SMILES): N.N.N.N.[Cl-].[Co+3].[N-]=[N+]=[N-].[N-]=[N+]=[N-]
- GI50 [1]: > 100 µM
- TGI [1]: > 100 µM
- GI50 [3]: > 100 µM
- TGI [3]: > 100 µM
- GI50 [4]: > 100 µM
- TGI [4]: > 100 µM
- GI50 [5]: > 100 µM
- TGI [5]: > 100 µM
- GI50 [6]: 38.6 µM
- TGI [6]: > 100 µM
- GI50 [7]: > 100 µM
- TGI [7]: > 100 µM
- GI50 [9]: > 100 µM
- TGI [9]: > 100 µM
- GI50 [8]: > 100 µM
- TGI [8]: > 100 µM

Structure (SMILES): CCCCOC(=O)NC(=O)c1cn(CCCOC(=O)NCCCCCCNC(=O)OCCCn2cc(C(=O)NC(=O)OCCCC)c(=O)[nH]c2=O)c(=O)[nH]c1=O
- TGI [1]: > 100 µM
- TGI [3]: > 100 µM
- TGI [4]: > 100 µM
- TGI [5]: > 100 µM
- TGI [7]: > 100 µM
- TGI [9]: > 100 µM
- TGI [8]: > 100 µM

Structure (SMILES): CCOC(=N)CC(=O)Nc1cccc(C)c1C
- TGI [2]: > 100 µM
- TGI [3]: > 100 µM
- TGI [5]: > 100 µM
- TGI [6]: 7.46 µM
- TGI [7]: > 100 µM
- TGI [8]: > 100 µM

Structure (SMILES): Nc1ccn(C2(CO)C=C(CO)C(O)C2O)c(=O)n1 (stereo not drawn)
- TGI [1]: > 25.8 µM
- TGI [2]: > 25.8 µM
- TGI [3]: > 25.8 µM
- TGI [4]: > 25.8 µM
- TGI [5]: > 25.8 µM
- TGI [6]: > 25.8 µM
- TGI [7]: > 25.8 µM
- TGI [8]: > 25.8 µM

Structure (SMILES): C[n+]1cc(C(O)c2ccc3c(c2)OCO3)c2ccccc2c1 (stereo not drawn)
- TGI [1]: > 100 µM
- TGI [2]: 69.4 µM
- TGI [3]: 66.5 µM
- TGI [4]: 98.8 µM
- TGI [5]: > 100 µM
- TGI [6]: 55.5 µM
- TGI [7]: > 100 µM
- TGI [8]: > 100 µM

Structure (SMILES): CN[C@@H](C)[C@H](NC)c1ccccc1
- TGI [1]: > 100 µM
- TGI [2]: > 100 µM
- TGI [3]: > 100 µM
- TGI [4]: > 100 µM
- TGI [6]: > 100 µM
- TGI [7]: > 100 µM
- TGI [9]: > 100 µM
- TGI [8]: > 100 µM

Structure (SMILES): CC(=O)c1sc(-c2nc(C)c(C(=O)/C=C\c3ccc(/C=C\C(=O)c4sc(-c5nc(C)c(C(C)=O)s5)nc4C)cc3)s2)nc1C
- TGI [1]: > 100 µM
- TGI [2]: > 100 µM
- TGI [3]: > 100 µM
- TGI [4]: > 100 µM
- TGI [5]: > 100 µM
- TGI [6]: > 100 µM
- TGI [7]: > 100 µM
- TGI [8]: > 100 µM

Structure (SMILES): C=C1C[C@]23CCC4C(C)(C)C(=O)CC[C@]4(C)C2C[C@H]1C(O)C3=O (stereo partly drawn)
- TGI [1]: > 75 µM
- TGI [3]: > 75 µM
- TGI [4]: > 75 µM
- TGI [6]: > 75 µM
- TGI [8]: > 75 µM

Structure (SMILES): Cc1cc(C)c(C2[C@H]3C(=O)N(c4ccc(Cc5ccc(N6C(=O)[C@@H]7ON(c8ccccc8)C(c8c(C)cc(C)cc8C)[C@@H]7C6=O)cc5)cc4)C(=O)[C@H]3ON2c2ccccc2)c(C)c1 (stereo partly drawn)
- TGI [1]: > 100 µM
- TGI [2]: > 100 µM
- TGI [3]: > 100 µM
- TGI [4]: > 100 µM
- TGI [5]: > 100 µM
- TGI [6]: > 100 µM
- TGI [7]: > 100 µM
- TGI [8]: > 100 µM
